Laboratory results from patent US20220107328A1, “METHODS OF TREATING LIVER DISEASES” (Camp4 Therapeutics Corporation, priority 2018, published 2022).
Each block holds one compound with its values, some of them ahead of it.

Columns and labels:
PNPLA3 mRNA [1] = assay: qRT-PCR of PNPLA3 mRNA in human primary hepatic stellate cells; assay type: cell-based; details: for Primary Stellate cells PNPLA3 (fold change in mRNA expression): 3 μM, relative to GAPDH; for Relative PNPLA3 mRNA levels RQ: GSK3 inhibitors in hepatic stellate cells; for PNPLA3 mRNA levels (in words): hepatic stellate cells, serial dilutions, 18 hours
COL1A1 mRNA = assay: qRT-PCR of COL1A1 mRNA in human primary hepatic stellate cells; assay type: cell-based; details: for Primary Stellate cells COL1A1 (fold change in mRNA expression): 3 μM, relative to GAPDH; for Relative COL1A1 mRNA levels RQ: GSK3 inhibitors in hepatic stellate cells; for COL1A1 expression (in words): hepatic stellate cells, serial dilutions, 18 hours
PCSK9 mRNA = assay: qRT-PCR of PCSK9 mRNA in primary hepatocytes; assay type: cell-based, human; details: donor 4178, 3 μM, relative to GUSB
PNPLA3 mRNA [2] = assay: qRT-PCR of PNPLA3 mRNA in compound-treated primary human hepatocytes; details: for Primary Hepatocytes 4178 PNPLA3 (fold change in mRNA expression): donor 4178, 3 μM; for Primary Hepatocytes 4178 PNPLA3 (fold change in mRNA expression) / Primary Hepatocytes 4282 PNPLA3 (fold change in mRNA expression): relative to GUSB; for Primary Hepatocytes 4282 PNPLA3 (fold change in mRNA expression): donor 4282, 3 μM; for Relative PNPLA3 mRNA levels: human hepatocytes; for Relative PINPLA3 mRNA: hepatocytes
[3] = JAK inhibitors, 10 μM, qRT-PCR, mean of three replicates ± standard deviation

- Primary Hepatocytes 4178 PCSK9 (fold change in mRNA expression) (PCSK9 mRNA): 0.74
- Primary Hepatocytes 4178 PNPLA3 (fold change in mRNA expression) (PNPLA3 mRNA [2]): 0.73
- Primary Hepatocytes 4282 PNPLA3 (fold change in mRNA expression) (PNPLA3 mRNA [2]): 0.85
Structure (SMILES): C[C@H](Nc1ncnc2[nH]cnc12)c1cc2ccc(F)cc2nc1-c1ccccn1 [AMG319]
- Primary Stellate cells PNPLA3 (fold change in mRNA expression) (PNPLA3 mRNA [1]): 0.99
- Primary Stellate cells COL1A1 (fold change in mRNA expression) (COL1A1 mRNA): 0.99

Structure (SMILES): Cc1cc(Nc2nc(N[C@@H](C)c3ncc(F)cn3)ncc2Cl)[nH]n1 [AZD1480]
- Relative PNPLA3 mRNA levels (PNPLA3 mRNA [2]; [3]): 0.69 ± 0.10
- PNPLA3 expression (in words) (PNPLA3 mRNA [2]; validation in human hepatocytes from a second donor, qRT-PCR): efficient downregulation of PNPLA3

- Primary Hepatocytes 4178 PCSK9 (fold change in mRNA expression) (PCSK9 mRNA): 0.36
- Primary Hepatocytes 4178 PNPLA3 (fold change in mRNA expression) (PNPLA3 mRNA [2]): 0.43
- Primary Hepatocytes 4282 PNPLA3 (fold change in mRNA expression) (PNPLA3 mRNA [2]): 0.80
Structure (SMILES): CNC(=O)c1cccc(-c2ccc3c(N4CCOC[C@@H]4C)nc(N4CCOC[C@@H]4C)nc3n2)c1 [AZD2014]
- Primary Stellate cells PNPLA3 (fold change in mRNA expression) (PNPLA3 mRNA [1]): 0.56
- Primary Stellate cells COL1A1 (fold change in mRNA expression) (COL1A1 mRNA): 0.55

Structure (SMILES): CN1CCN(S(=O)(=O)c2ccc(-c3cnc(N)c(C(=O)Nc4cccnc4)n3)cc2)CC1 [AZD2858]
- Relative PNPLA3 mRNA levels RQ (PNPLA3 mRNA [1]; 1 μM): 0.48
- Relative PNPLA3 mRNA levels RQ (PNPLA3 mRNA [1]; 10 μM): 0.72
- PNPLA3 mRNA levels (in words) (PNPLA3 mRNA [1]): modestly decreased both PNPLA3 and COL1A1 in a dose dependent manner
- Relative COL1A1 mRNA levels RQ (COL1A1 mRNA; 1 μM): 0.83
- Relative COL1A1 mRNA levels RQ (COL1A1 mRNA; 10 μM): 0.72
- COL1A1 expression (in words) (COL1A1 mRNA): modestly decreased both PNPLA3 and COL1A1 in a dose dependent manner

- Primary Hepatocytes 4178 PCSK9 (fold change in mRNA expression) (PCSK9 mRNA): 0.56
Structure (SMILES): Cc1cc([C@@H](C)Nc2ccccc2C(=O)O)c2nc(N3CCOCC3)cc(=O)n2c1 [AZD6482]
- Primary Stellate cells PNPLA3 (fold change in mRNA expression) (PNPLA3 mRNA [1]): 0.87
- Primary Stellate cells COL1A1 (fold change in mRNA expression) (COL1A1 mRNA): 1.20

- Primary Hepatocytes 4178 PCSK9 (fold change in mRNA expression) (PCSK9 mRNA): 0.70
- Primary Hepatocytes 4178 PNPLA3 (fold change in mRNA expression) (PNPLA3 mRNA [2]): 0.80
- Primary Hepatocytes 4282 PNPLA3 (fold change in mRNA expression) (PNPLA3 mRNA [2]): 0.80
Structure (SMILES): C[C@@H](Nc1cc(F)cc(F)c1)c1cc(C(=O)N(C)C)cc2c(=O)cc(N3CCOCC3)oc12 [AZD8186]
- Primary Stellate cells PNPLA3 (fold change in mRNA expression) (PNPLA3 mRNA [1]): 0.86
- Primary Stellate cells COL1A1 (fold change in mRNA expression) (COL1A1 mRNA): 1.22

- Primary Hepatocytes 4178 PCSK9 (fold change in mRNA expression) (PCSK9 mRNA): 0.99
- Primary Hepatocytes 4178 PNPLA3 (fold change in mRNA expression) (PNPLA3 mRNA [2]): 1.00
- Primary Hepatocytes 4282 PNPLA3 (fold change in mRNA expression) (PNPLA3 mRNA [2]): 1.00
Structure (SMILES): C[C@H](Nc1ncnc2[nH]cnc12)c1nc2ccc(F)cc2c(=O)n1-c1ccccc1 [Acalisib]
- Primary Stellate cells PNPLA3 (fold change in mRNA expression) (PNPLA3 mRNA [1]): 0.91
- Primary Stellate cells COL1A1 (fold change in mRNA expression) (COL1A1 mRNA): 0.96

Structure (SMILES): CC[C@@H]1C(=O)N(C)c2cnc(Nc3ccc(C(=O)NC4CCN(C)CC4)cc3OC)nc2N1C1CCCC1 [BI 2536]
- Relative PINPLA3 mRNA (PNPLA3 mRNA [2]; 10 uM): 0.38

Structure (SMILES): O=C1Nc2cc(Br)ccc2/C1=C1/Nc2ccccc2/C1=N\O [BIO]
- Relative PNPLA3 mRNA levels RQ (PNPLA3 mRNA [1]; 1 μM): 1.09
- Relative PNPLA3 mRNA levels RQ (PNPLA3 mRNA [1]; 10 μM): 0.54
- PNPLA3 mRNA levels (in words) (PNPLA3 mRNA [1]): modestly decreased both PNPLA3 and COL1A1 in a dose dependent manner
- Relative COL1A1 mRNA levels RQ (COL1A1 mRNA; 1 μM): 0.74
- Relative COL1A1 mRNA levels RQ (COL1A1 mRNA; 10 μM): 0.59
- COL1A1 expression (in words) (COL1A1 mRNA): modestly decreased both PNPLA3 and COL1A1 in a dose dependent manner

Structure (SMILES): O=C(NCCCNc1nc(Nc2cccc(NC(=O)N3CCCC3)c2)ncc1I)c1cccs1 [BX795]
- Relative PNPLA3 mRNA levels (PNPLA3 mRNA [2]; TBK1 inhibitor, concentration not given): 0.51±0.06

Structure (SMILES): Nc1cc(C(F)(F)F)c(-c2cc(N3CCOCC3)nc(N3CCOCC3)n2)cn1 [Buparlisib (BKM120, NVP-BKM120)]
- Relative PINPLA3 mRNA (PNPLA3 mRNA [2]; 0.1 uM): 1.049
- Relative PINPLA3 mRNA (PNPLA3 mRNA [2]; 0.3 uM): 0.729
- Relative PINPLA3 mRNA (PNPLA3 mRNA [2]; 1 uM): 0.659
- Relative PINPLA3 mRNA (PNPLA3 mRNA [2]; 3 uM): 0.515

Structure (SMILES): CCS(=O)(=O)N1CCN(c2ccc(Nc3ncc(C(N)=O)c(NC4CC4)n3)cc2)CC1 [Cerdulatinib]
- Relative PNPLA3 mRNA levels (PNPLA3 mRNA [2]; [3]): 0.82 ± 0.00

Structure (SMILES): Cc1cnc(Nc2ccc(OCCN3CCCC3)cc2)nc1Nc1cccc(S(=O)(=O)NC(C)(C)C)c1 [Fedratinib (SAR302503, TG101348)]
- Relative PINPLA3 mRNA (PNPLA3 mRNA [2]; 10 uM): 0.25

Structure (SMILES): O=C(Nc1nc2cccc(-c3ccc(CN4CCS(=O)(=O)CC4)cc3)n2n1)C1CC1 [Filgotinib]
- Relative PNPLA3 mRNA levels (PNPLA3 mRNA [2]; [3]): 1.07 ± 0.14
- Relative PINPLA3 mRNA (PNPLA3 mRNA [2]; 1 uM): 0.781
- Relative PINPLA3 mRNA (PNPLA3 mRNA [2]; 10 uM): 0.365

- Primary Hepatocytes 4178 PCSK9 (fold change in mRNA expression) (PCSK9 mRNA): 0.59
Structure (SMILES): Cc1c(Cn2c(C)nc3c(C(=O)O)cc(N4CCOCC4)cc32)cccc1C(F)(F)F [GSK2636771]
- Primary Stellate cells PNPLA3 (fold change in mRNA expression) (PNPLA3 mRNA [1]): 1.06
- Primary Stellate cells COL1A1 (fold change in mRNA expression) (COL1A1 mRNA): 1.04

Structure (SMILES): Cc1cc(Nc2cc(CN3CCOCC3)c3nc(C)c(Cc4ccc(Cl)cc4F)n3n2)n[nH]1 [Gandotinib]
- Relative PNPLA3 mRNA levels (PNPLA3 mRNA [2]; [3]): 0.76 ± 0.13

Structure (SMILES): Cl.NNc1nncc2ccccc12 [Hydralazine HCI]
- Relative PINPLA3 mRNA (PNPLA3 mRNA [2]; 10 uM): 0.25

Structure (SMILES): COc1cc2ncnc(Nc3ccc(O)cc3)c2cc1OC [JANEX-1]
- Relative PNPLA3 mRNA levels (PNPLA3 mRNA [2]; [3]): 0.78 ± 0.11
